The text below walks through data of US20050209441A1, “Process for promoting proper folding of human serum albumin using a human serum albumin ligand” (priority 2004, published 2005).

Structures are written as SMILES. Like-named read-outs stand apart in the source and are kept apart here. Where only a bound is given, the exact number is not on record here.

For orientation: EC50 means the midpoint of the concentration-response curve. The low end stands for a more potent agent, the high end for a less potent agent.

For this experiment, the target named is human serum albumin (HSA) (Homo sapiens, UniProt P02768). Briefly: HSA refolding with ligand assistance (ED50 for refolding). The protocol:
Sodium caprate is added to Solution B to a final concentration of 10 mM. Solution B is held at 37° C. for 1-5 minutes.
Step C. […] Sodium caprate is added to Solution C to a final concentration of 10 mM. Solution C is held at 37° C. for a period of 30 minutes.

Sequence of human serum albumin (HSA) (P02768 25-609): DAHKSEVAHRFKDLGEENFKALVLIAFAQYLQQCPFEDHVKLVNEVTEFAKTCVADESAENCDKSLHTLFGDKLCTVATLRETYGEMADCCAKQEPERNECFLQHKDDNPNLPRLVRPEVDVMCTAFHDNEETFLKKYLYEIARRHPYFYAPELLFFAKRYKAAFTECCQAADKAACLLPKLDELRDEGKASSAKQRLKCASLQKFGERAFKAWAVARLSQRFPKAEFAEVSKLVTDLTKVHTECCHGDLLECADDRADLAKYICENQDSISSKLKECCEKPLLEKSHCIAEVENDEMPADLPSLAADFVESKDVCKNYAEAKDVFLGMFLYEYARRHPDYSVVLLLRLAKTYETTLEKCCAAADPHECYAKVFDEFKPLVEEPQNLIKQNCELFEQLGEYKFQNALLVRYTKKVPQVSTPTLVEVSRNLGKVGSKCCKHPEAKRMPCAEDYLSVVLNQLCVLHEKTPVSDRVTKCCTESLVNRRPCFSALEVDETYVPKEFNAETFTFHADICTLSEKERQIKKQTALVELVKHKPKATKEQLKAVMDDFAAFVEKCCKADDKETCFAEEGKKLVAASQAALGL

On to `CCCCO` [1-Butanol (C4), 1-Butanol], for which the “Optimal Concentration (refolding ligand)” value (Table 1) was determined as 500 mM.

Compound `CCCCCCCCCCO` [1-Decanol (C10), 1-Decanol] showed a 50% effective concentration (EC50) of 300 µM. The “Optimal Concentration (refolding ligand)” value (Table 1) was determined as 3 mM.

As for `CCCCCCCCCCCCO` [1-Dodecanol (C12), 1-Dodecanol], the half-maximal effective concentration (EC50) was 230 µM and the “Optimal Concentration (refolding ligand)” value is 0.3 mM (saturated).

For the compound `CCCCCCO` [1-Hexanol (C6), 1-Hexanol], the “Optimal Concentration (refolding ligand)” value (Table 1) stood at 25 mM.

With `CCCCCCCCO` [1-Octanol (C8), 1-Octanol], the EC50 was determined as 450 µM. For the same compound, under “Table 1”, the “Optimal Concentration (refolding ligand)” value is given as 3 mM.

For `CCCCCO` [1-Pentanol (C5), 1-Pentanol], where the note is “Table 1”, the “Optimal Concentration (refolding ligand)” value was determined as 150 mM.

On to `CCCCCC(=O)[O-].[Na+]` [Na Caproate, sodium caproate], for which the “Optimal Concentration (refolding ligand)” value (Table 1) is reported as over 30 mM.

In the case of `CCCCCCCCCCCC(=O)[O-].[Na+]` [Na Laurate, sodium laurate], the concentration for a half-maximal effect (EC50) was 45 µM. Also, the “Optimal Concentration (refolding ligand)” value (Table 1) came to 1 mM.

Compound `CCCCOC(=O)c1ccc(N)cc1` [n-butyl p-aminobenzoate] showed an EC50 of 800 µM.
